These results are taken from patent US10197581B2, “Vitamin D assays” (Enzo Life Sciences, Inc., priority 2013, dated 2019).

Where a name gives a salt, the structure may show the parent alone. Read-outs that look alike come from different tables or passages of the source.

For data set [1], the target named is T1, vitamin D binding protein (DBP) (Homo sapiens, UniProt P02774).
T1 sequence (P02774 17-474): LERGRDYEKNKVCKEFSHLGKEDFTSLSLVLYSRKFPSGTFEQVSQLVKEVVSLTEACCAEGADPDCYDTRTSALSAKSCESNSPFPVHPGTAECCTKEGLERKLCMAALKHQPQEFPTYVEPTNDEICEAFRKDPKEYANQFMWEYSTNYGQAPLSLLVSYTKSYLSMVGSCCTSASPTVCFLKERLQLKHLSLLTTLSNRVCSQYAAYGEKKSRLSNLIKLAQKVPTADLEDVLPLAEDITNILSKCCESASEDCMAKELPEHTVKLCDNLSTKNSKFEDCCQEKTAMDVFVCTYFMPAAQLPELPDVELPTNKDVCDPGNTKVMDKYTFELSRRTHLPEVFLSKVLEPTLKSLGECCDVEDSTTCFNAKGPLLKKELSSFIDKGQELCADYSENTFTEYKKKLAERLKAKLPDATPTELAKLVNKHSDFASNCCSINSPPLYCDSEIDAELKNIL
Nature of the data set: Screening of dissociation buffer components (release reagents) in the 25OHD ELISA. Format: biochemical. The note with it: for release of 25OHD from DBP and maintaining 25OHD availability for antibody binding / tolerance in the assay: component of dissociation buffer; for effect towards dissociation of 25OHD from DBP: earlier experiments. Here is the method: In order to optimize the ELISA 25OHD assay, components of the dissociation buffer, the assay buffer and the wash buffer, and conditions for performing various steps in the protocol were tested in the assay. Various reagents were tested alone or in combination for their effects on dissociation of 25OHD from DBP.
In addition, various types and concentrations of buffer salts (e.g., Tris, MES, citrate) were used in the dissociation buffers, assay buffers and wash buffers. Dissociation and wash buffers having a pH from 4-8 were tested. Dissocation was performed at different temperatures (RT, 37° C., 65° C.) and in different incubation vessels (polypropylene or polystyrene) and the competitive ELISA was performed using various different 25OHD conjugates.

Data set [2] deals with sheep monoclonal anti-25OHD antibody (Bioventix). Description: Cross-reactivity of vitamin D metabolites in the optimized 25OHD competitive ELISA. Format: binding. The note with it: for % cross-reactivity: determined at the OD corresponding to the ED50 of 25OHD3; for ED50: optimized 25OHD ELISA, metabolite serially diluted in Tris buffer. Here is the method: Ten vitamin D metabolites were tested for cross-reactivity in the optimized 25OHD ELISA assay described above. New concentrated stock solutions were prepared from dry chemicals for all metabolites. For cross-reactivity testing, each metabolite was prepared and serially diluted in a Tris buffer. Metabolites and the concentration ranges tested are in Table 3. The metabolite solutions were used as samples and mixed with dissociation buffer and the assay carried out as previously described.
On the technique in general: In an ELISA, binding on a coated surface is turned into a signal by an enzyme label.

The format of data set [3] is physicochemical.

`O=C([O-])c1ccccc1O.[Na+]` [sodium salicylate]: in data set [1], the “preventing 25OHD re-uptake by DBP or binding to other cellular proteins/lipids” value was “appeared to be effective”; the “release of 25OHD from DBP and maintaining 25OHD availability for antibody binding” value (“release of 25OHD” below) is “effective and generally compatible with the assay”; the “effect towards dissociation of 25OHD from DBP” value was “did not show a large effect”.

In the case of `C=C1/C(=C\C=C2/CCC[C@]3(C)[C@@H]([C@H](C)CCCC(C)(C)O)CC[C@@H]23)C[C@@H](O)C[C@@H]1O` [1,25(OH)2VitaminD3], the “% cross-reactivity” value in data set [2] is 27.9%; in data set [2] (listed as 1,25(OH)2D3), 28%. Further, the ED50 in data set [2] was found to be 0.00627 µg/mL.

Regarding `O[C@@H](CS)[C@@H](O)CS` [DTT], the “release of 25OHD” value in data set [1] is recorded as “did not aid in dissociating 25OHD from DBP”.

For the molecule `CCCCC/C=C\C/C=C\C/C=C\C/C=C\CCCC(=O)O` [Arachidonic acid, arachidonic acid], the “release of 25OHD” value in data set [1] is listed as “did not aid in dissociating 25OHD from DBP”.

Regarding `CC(C)O` [2-isopropanol], the “release of 25OHD” value in data set [1] was “ineffective release reagents at concentrations that were tolerable in the assay”.

Consider NP-40, for which, in data set [1], the “tolerance in the assay” value is reported as “not tolerated in the assay”.

As to `C=C1CC[C@@H](O)C/C1=C/C=C1\CCC[C@]2(C)[C@@H]([C@H](C)CCCC(C)(C)O)CC[C@@H]12` [3-epi-25(OH)VitaminD3], in data set [2], the “% cross-reactivity” value came to 50.87% and the ED50 amounted to 0.00344 µg/mL. The “% cross-reactivity” value in data set [2] (listed as 3-epimer of 25(OH)VitaminD3) was found to be 51%.

For the molecule `C=C1CC[C@H](O)C/C1=C/C=C1\CCC[C@]2(C)[C@@H]([C@H](C)/C=C/[C@H](C)C(C)(C)O)CC[C@@H]12` [25(OH)VitaminD2], in data set [2], the “% cross-reactivity” value stood at 87.94% and the ED50 was found to be 0.00199 µg/mL. In addition, the “% cross-reactivity” value in data set [2] (listed as 25OHD2) was found to be 88%.

For `CCCC[n+]1ccc(C)cc1.F[B-](F)(F)F`, in data set [1], the “release of 25OHD” value is “effective and generally compatible with the assay”. Moreover, the “time after manufacture until dissociation buffer became unreliable” value in data set [3] is given as no more than 7 days. Moreover, the “pH of the dissociation buffer” value is 4.7 in data set [3] (after 1.5 days); 4.07 in data set [3] (after 4 days); 3.46 in data set [3] (after 7 day); 2.79 in data set [3] (after 8 days); 2.43 in data set [3] (after 9 days); 5.2 in data set [3] (freshly made).

For Triton X-100, the “tolerance in the assay” value in data set [1] was “not tolerated in the assay”.

On to `CCO` [ethanol], for which the “release of 25OHD” value in data set [1] is recorded as “ineffective release reagents at concentrations that were tolerable in the assay”.

For `C=C1/C(=C\C=C2/CCC[C@]3(C)[C@@H]([C@H](C)CCCC(C)C)CC[C@@H]23)C[C@@H](O)C[C@@H]1O` [1α(OH)VitaminD3], in data set [2], the “% cross-reactivity” value amounted to 0.04% and the ED50 turned out to be 4.03 µg/mL.

As for casein, in data set [1] (protein at or above 0.5% in the assay), the “effect on absorbance signal and dynamic signal range” value was “negatively impacted absorbance signal and dynamic signal range”.

Regarding methyl β-cyclodextrin, in data set [1], the “preventing 25OHD re-uptake by DBP or binding to other cellular proteins/lipids” value is listed as “appeared to be effective”; the “release of 25OHD” value was “effective and generally compatible with the assay”; the “effect towards dissociation of 25OHD from DBP” value was “did not show a large effect”.

For the molecule `C=C1/C(=C\C=C2/CCC[C@]3(C)[C@@H]([C@H](C)/C=C/[C@H](C)C(C)C)CC[C@@H]23)C[C@@H](O)C[C@@H]1O` [1α(OH)VitaminD2], in data set [2], the “% cross-reactivity” value is reported as less than 0.01% and the ED50 came out at 1.43 µg/mL.

For `C=C1CC[C@H](O)C/C1=C/C=C1\CCC[C@]2(C)[C@@H]([C@H](C)/C=C/[C@H](C)C(C)C)CC[C@@H]12` [Vitamin D2], in data set [2], the “% cross-reactivity” value is on record as 0.11% and the ED50 was 1.643 µg/mL.

Turning to “1-butyl-3-methylimidazolium octylsulfate”, in data set [1], the “release of 25OHD” value was “effective and generally compatible with the assay”.

Take `CCCCCCCCCCCC(=O)OCCOCCOCCOCCOCCOCCOCCOCCOCCOCCOCCOCCOCCOCCOCCOCCOCCOCCOCCOCCOCC(OCCOCCOCCOCCOCCOCCOCCOCCOCCOCCOCCOCCOCCOCCOCCOCCOCCOCCOCCOCCO)C1OCC(OCCOCCOCCOCCOCCOCCOCCOCCOCCOCCOCCOCCOCCOCCOCCOCCOCCOCCOCCOCCO)C1OCCOCCOCCOCCOCCOCCOCCOCCOCCOCCOCCOCCOCCOCCOCCOCCOCCOCCOCCOCCO` (stereo not drawn) [Tween-20, Polysorbate 20]: the “release of 25OHD” value in data set [1] was “did not aid in dissociating 25OHD from DBP”.

In the case of `CC#N` [Acetonitrile, acetonitrile], the “release of 25OHD” value in data set [1] is “ineffective release reagents at concentrations that were tolerable in the assay”.

With `O=C(O)CCP(CCC(=O)O)CCC(=O)O` [TCEP], in data set [1], the “release of 25OHD” value was “did not aid in dissociating 25OHD from DBP”.

For `O=C(O)CN(CCN(CC(=O)O)CC(=O)O)CC(=O)O` [EDTA], in data set [1], the “release of 25OHD” value is recorded as “did not aid in dissociating 25OHD from DBP”.

Regarding `CCCCCCCCCCCCOS(=O)(=O)[O-].[Na+]` [SDS, sodium dodecyl sulfate], the “release of 25OHD” value in data set [1] was “did not aid in dissociating 25OHD from DBP”.

`C[C@H](CCC(=O)NCCC[N+](C)(C)CCCS(=O)(=O)[O-])[C@H]1CC[C@H]2[C@@H]3[C@H](O)C[C@@H]4C[C@H](O)CC[C@]4(C)[C@H]3C[C@H](O)[C@]12C` [CHAPS]: in data set [1], the “release of 25OHD” value is on record as “did not aid in dissociating 25OHD from DBP”.

Take `C=C1CC[C@H](O)C/C1=C/C=C1\CCC[C@]2(C)[C@@H]([C@H](C)CCCC(C)(C)O)CC[C@@H]12` [25(OH)VitaminD3]: in data set [2], the “% cross-reactivity” value is 100% and the ED50 came to 0.00175 µg/mL.

Turning to `N=C(N)N` [guanidine HCl], the “release of 25OHD” value in data set [1] was “did not aid in dissociating 25OHD from DBP”.

In the case of `C=C1/C(=C\C=C2/CCC[C@]3(C)[C@@H]([C@H](C)/C=C/[C@H](C)C(C)(C)O)CC[C@@H]23)C[C@@H](O)C[C@@H]1O` [1,25(OH)2VitaminD2], the “% cross-reactivity” value in data set [2] stood at 94.1%; in data set [2] (listed as 1,25(OH)2D2), 94%. The ED50 in data set [2] is 0.00186 µg/mL.

In the case of `C=C1CC[C@H](O)C/C1=C/C=C1\CCC[C@]2(C)[C@@H]([C@H](C)CCCC(C)C)CC[C@@H]12` [Vitamin D3], in data set [2], the “% cross-reactivity” value came to 0.01% and the ED50 is 23.5 µg/mL.

`CCCCn1cc[n+](C)c1.F[B-](F)(F)F` [1-butyl-3-methylimidazolium tetrafluoroborate]: in data set [1], the “release of 25OHD” value was “effective and generally compatible with the assay”.

With `CCCCCCCCCCCCCC[N+](C)(C)CCCS(=O)(=O)[O-]` [Zwittergent 3-14], the “tolerance in the assay” value in data set [1] is “not tolerated in the assay”.

On to `CO` [methanol], for which the “release of 25OHD” value in data set [1] is recorded as “ineffective release reagents at concentrations that were tolerable in the assay”.

Take `C=C1CCC(O)C/C1=C\C=C1\CCCC2(C)C1CCC2C(C)CCC(O)C(C)(C)O` (stereo not drawn) [24,25(OH)2VitaminD3]: in data set [2] (25OHD assay), the “detection by the anti-25OHD antibody” value is listed as “neither the parent vitamin compounds nor the 24,25(OH)2VitaminD3 metabolite was detected to any appreciable degree”. Besides, in data set [2], the “% cross-reactivity” value was determined as 1.25% and the ED50 was found to be 0.14 µg/mL.
